From patent US20230192705A1, “SHP2 INHIBITORS, COMPOSITIONS AND USES THEREOF” (Betta Pharmaceuticals Co., Ltd, priority 2020, published 2023)

These compounds were tested against T1, SHP2 (Homo sapiens, UniProt Q06124) (assay: SHP2 allosteric inhibitor enzyme activity assay (DiFMUP fluorescence)). Settings: class symbols.
T1 sequence (Q06124 1-593): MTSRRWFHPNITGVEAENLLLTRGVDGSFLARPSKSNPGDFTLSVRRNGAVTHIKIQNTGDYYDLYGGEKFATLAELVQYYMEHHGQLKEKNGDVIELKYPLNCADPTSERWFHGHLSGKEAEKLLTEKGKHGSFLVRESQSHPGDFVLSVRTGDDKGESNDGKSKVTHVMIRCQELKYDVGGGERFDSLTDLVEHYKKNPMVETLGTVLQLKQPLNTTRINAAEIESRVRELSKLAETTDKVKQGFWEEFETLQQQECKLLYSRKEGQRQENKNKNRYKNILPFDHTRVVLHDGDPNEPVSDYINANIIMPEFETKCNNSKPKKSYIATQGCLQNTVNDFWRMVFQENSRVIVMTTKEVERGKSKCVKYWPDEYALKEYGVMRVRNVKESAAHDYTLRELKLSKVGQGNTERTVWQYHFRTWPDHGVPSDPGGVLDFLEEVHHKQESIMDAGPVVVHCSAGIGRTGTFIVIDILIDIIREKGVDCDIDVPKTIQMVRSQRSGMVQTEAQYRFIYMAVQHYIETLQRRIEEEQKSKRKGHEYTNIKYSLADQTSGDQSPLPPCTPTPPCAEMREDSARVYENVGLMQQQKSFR
Format: biochemical
Description: SHP2 is activated by the binding of a bis-tyrosyl-phosphorylated peptide to its Src homologous 2 (SH2) domain. This subsequent activation step leads to the release of the automatic inhibition interface of SHP2, which in turn activates the SHP2 protein tyrosine phosphatase (PTP) and can be used for substrate recognition and reaction catalysis. The catalytic activity of SHP2 was monitored using the alternative DiFMUP in a rapid fluorescence assay format.
Assay procedures are as follows:
(1) Compound Formulation:
The compound of the present invention (10 mM stock solution) was diluted to a suitable multiple with 100% DMSO and assay buffer, and the final test concentration of the compound of the present invention was 1 μM, 0.333 μM, 0.111 μM, 0.0370 μM, 0.0124 μM, 0.00412 μM, 0.00137 μM, 0.00046 μM, 0.00015 μM, 0.00 μM;
(2) Preparation of Enzyme Reaction Working Fluid:
SHP2 enzyme activity was performed using a final reaction volume of 50 μL and the following assay buffer conditions in 96-well black polystyrene plates (flat bottom, low flange, non-bonding surface) (Perki Elmer, Cat #6005270) at room temperature: 60 mM HEPES, 75 mM NaCl, 75 mM KCl, 0.05% BRIJ-35, 1 mM EDTA, 5 mM DTT.
(3) Enzyme Catalytic Reaction and Data Monitoring:
Compounds of the present invention were added to the corresponding 96-well plates, and no compound and enzyme were provided as blank test wells. SHP2 Activating Peptide (IRS1_pY1172 (dPEG8)pY1222) was placed on ice for melting, and 0.5 μM was added per well, then 0.2 ng SHP2 protein samples were added to corresponding well plates, and incubated at room temperature for 1 hour. Substrate DiFMUP (Invitrogen, Cat #D6567) was added to the reaction at room temperature for 1 hour. Fluorescence signals were monitored using an enzyme reader (Envision, Perki Elmer) using excitation wavelengths and emission wavelengths of 340 nm and 450 nm, respectively.
Inhibition %=[1−(Conversion_sample−Conversion_min)/(Conversion_max−Conversion_min)]*100% Calculation formula: […]
where: Conversion_sample is the mean reading of the sample wells; Conversion_min is the mean reading of blank control wells, representing the reading of the wells without enzyme; Conversion_max is the mean of positive control wells, representing the reading of the wells without inhibitor.
The dose-response curve is fitted with GraphPad Prism software and IC50 was calculated by the “log[inhibitor] vs. response-variable slope” program.
`N#Cc1cccc(C2(c3n[nH]c4nc(N5CCC6(CC5)Cc5ccccc5[C@H]6N)[nH]c(=O)c34)CC2)c1` [Example 35, (S)-3-(1-(6-(1-amino-1,3-dihydrospiro[indene-2,4′-piperidin]-1′-yl)-4-oxo-4,5-dihydro-1H-pyrazolo[3,4-d]pyrimidin-3-yl)cyclopropyl)benzonitrile] was tested, and the IC50 was no more than 20 nM.
Work on `Cn1cc(-c2cccc(C3(c4n[nH]c5nc(N6CCC7(CC6)Cc6ccccc6[C@H]7N)[nH]c(=O)c45)CC3)c2)cn1` [Example 36, (S)-6-(1-amino-1,3-dihydrospiro[indene-2,4′-piperidin]-1′-yl)-3-(1-(3-(1-methyl-1H-pyrazol-4-yl)phenyl)cyclopropyl)-1,5-dihydro-4H-pyrazolo[3,4-d]pyrimidin-4-one] yielded an IC50 of no more than 20 nM.
Work on `Cn1ncc(-c2cccc(C3(c4n[nH]c5nc(N6CCC7(CC6)Cc6ccccc6[C@H]7N)[nH]c(=O)c45)CC3)c2)n1` [Example 37, (S)-6-(1-amino-1,3-dihydrospiro[indene-2,4′-piperidin]-1′-yl)-3-(1-(3-(2-methyl-2H-1,2,3-triazol-4-yl)phenyl)cyclopropyl)-1,5-dihydro-4H-pyrazolo[3,4-d]pyrimidin-4-one] yielded an IC50 of no more than 20 nM.
`N[C@@H]1c2ccccc2CC12CCN(c1nc3[nH]nc(C4(c5cccc(C6CCOC6)c5)CC4)c3c(=O)[nH]1)CC2` (stereo partly drawn) [Example 39, 6-((S)-1-amino-1,3-dihydrospiro[indene-2,4′-piperidin]-1′-yl)-3-(1-(3-(tetrahydrofuran-3-yl)phenyl)cyclopropyl)-1,5-dihydro-4H-pyrazolo[3,4-d]pyrimidin-4-one] gave an IC50 of no more than 20 nM.
`N[C@@H]1c2ccccc2CC12CCN(c1nc3[nH]nc(C4(c5cccc(C6CCOCC6)c5)CC4)c3c(=O)[nH]1)CC2` [Example 40, (S)-6-(1-amino-1,3-dihydrospiro[indene-2,4′-piperidin]-1′-yl)-3-(1-(3-(tetrahydro-2H-pyran-4-yl)phenyl)cyclopropyl)-1,5-dihydro-4H-pyrazolo[3,4-d]pyrimidin-4-one] showed an IC50 of no more than 20 nM.
Compound `CCOC(=O)Nc1cccc(C2(c3n[nH]c4nc(N5CCC6(CC5)Cc5ccccc5[C@H]6N)[nH]c(=O)c34)CC2)c1` [Example 41, ethyl (S)-(3-(1-(6-(1-amino-1,3-dihydrospiro[indene-2,4′-piperidin]-1′-yl)-4-oxo-4,5-dihydro-1H-pyrazolo[3,4-d]pyrimidin-3-yl)cyclopropyl)phenyl)carbamate] has an IC50 of no more than 20 nM.
Compound `Nc1cccc(C2(c3n[nH]c4nc(N5CCC6(CC5)Cc5ccccc5[C@H]6N)[nH]c(=O)c34)CC2)c1` [Example 43, (S)-6-(1-amino-1,3-dihydrospiro[indene-2,4′-piperidin]-1′-yl)-3-(1-(3-aminophenyl)cyclopropyl)-1,5-dihydro-4H-pyrazolo[3,4-d]pyrimidin-4-one] has an IC50 of no more than 20 nM.
For `COCCOc1cccc(C2(c3n[nH]c4nc(N5CCC6(CC5)Cc5ccccc5[C@H]6N)[nH]c(=O)c34)CC2)c1` [Example 44, (S)-6-(1-amino-1,3-dihydrospiro[indene-2,4′-piperidin]-1′-yl)-3-(1-(3-(2-methoxyethoxy)phenyl)cycloprop-yl)-1,5-dihydro-4H-pyrazolo[3,4-d]pyrimidin-4-one], the IC50 was no more than 20 nM.
Work on `Nc1nccc(C2(c3n[nH]c4nc(N5CCC6(CC5)Cc5ccccc5[C@H]6N)[nH]c(=O)c34)CC2)c1Cl` [Example 46, (S)-6-(1-amino-1,3-dihydrospiro[indene-2,4′-piperidin]-1′-yl)-3-(1-(2-amino-3-chloropyridin-4-yl)cyclopropyl)-1,5-dihydro-4H-pyrazolo[3,4-d]pyrimidin-4-one] yielded an IC50 of no more than 20 nM.
In the case of `N[C@@H]1c2ccccc2CC12CCN(c1nc3[nH]nc(C4(c5ccnc(Cl)c5Cl)CC4)c3c(=O)[nH]1)CC2` [Example 48, (S)-6-(1-amino-1,3-dihydrospiro[indene-2,4′-piperidin]-1′-yl)-3-(1-(2,3-dichloropyridin-4-yl)cyclopropyl)-1,5-dihydro-4H-pyrazolo[3,4-d]pyrimidin-4-one], the IC50 is reported as no more than 20 nM.
`N[C@@H]1c2ccccc2CC12CCN(c1nc3[nH]nc(C4(c5cccc(Cl)c5Cl)CC4)c3c(=O)[nH]1)CC2` [Example 49, (S)-6-(1-amino-1,3-dihydrospiro[indene-2,4′-piperidin]-1′-yl)-3-(1-(2,3-dichlorophenyl)cyclopropyl)-1,5-dihydro-4H-pyrazolo[3,4-d]pyrimidin-4-one] showed an IC50 of no more than 20 nM.
`N[C@@H]1c2ccccc2CC12CCN(c1nc3[nH]nc(C4(c5cccc(O)c5Cl)CC4)c3c(=O)[nH]1)CC2` [Example 50, (S)-6-(1-amino-1,3-dihydrospiro[indene-2,4′-piperidin]-1′-yl)-3-(1-(2-chloro-3-hydroxyphenyl)cyclopropyl)-1,5-dihydro-4H-pyrazolo[3,4-d]pyrimidin-4-one] gave an IC50 of no more than 20 nM.
Work on `N[C@@H]1c2ccccc2CC12CCN(c1nc3[nH]nc(C4(c5cnccn5)CC4)c3c(=O)[nH]1)CC2` [Example 51, (S)-6-(1-amino-1,3-dihydrospiro[indene-2,4′-piperidin]-1′-yl)-3-(1-(pyrazin-2-yl)cyclopropyl)-1,5-dihydro-4H-pyrazolo[3,4-d]pyrimidin-4-one] yielded an IC50 of no more than 20 nM.
With `N[C@@H]1c2ccccc2CC12CCN(c1nc3[nH]nc(C4(c5cccc(OC(F)F)c5)CC4)c3c(=O)[nH]1)CC2` [Example 52, (S)-6-(1-amino-1,3-dihydrospiro[indene-2,4′-piperidin]-1′-yl)-3-(1-(3-(difluoromethoxy)plienyl)cyclo-propyl)-1,5-dihydro-4H-pyrazolo[3,4-d]pyrimidin-4-one] the IC50 was no more than 20 nM.
In the case of `N[C@@H]1c2ccccc2CC12CCN(c1nc3[nH]nc(C4(c5ccnc(OC(F)F)c5)CC4)c3c(=O)[nH]1)CC2` [Example 53, (S)-6-(1-amino-1,3-dihydrospiro[indene-2,4′-piperidin]-1′-yl)-3-(1-(2-(difluoromethoxy)pyridin-4-yl)cyclopropyl)-1,5-dihydro-4H-pyrazolo[3,4-d]pyrimidin-4-one], the IC50 is reported as no more than 20 nM.
Work on `CN(C)c1cc(C2(c3n[nH]c4nc(N5CCC6(CC5)Cc5ccccc5[C@H]6N)[nH]c(=O)c34)CC2)ccn1` [Example 54, (S)-6-(1-amino-1,3-dihydrospiro[indene-2,4′-piperidin]-1′-yl)-3-(1-(2-(dimethylamino)pyridin-4-yl)cyclopropyl)-1,5-dihydro-4H-pyrazolo[3,4-d]pyrimidin-4-one] yielded an IC50 of no more than 20 nM.
`N[C@@H]1c2ccccc2CC12CCN(c1nc3[nH]nc(C4(c5ccnc(CN6CCCC6)c5)CC4)c3c(=O)[nH]1)CC2` [Example 55, (S)-6-(1-amino-1,3-dihydrospiro[indene-2,4′-piperidin]-1′-yl)-3-(1-(2-(pyrrolidin-1-ylmethyl)pyridin-4-yl)cyclopropyl)-1,5-dihydro-4H-pyrazolo[3,4-d]pyrimidin-4-one] gave an IC50 of 20 to 60 nM.
`N[C@@H]1c2ccccc2CC12CCN(c1nc3[nH]nc(C4(c5cnn(-c6ccccc6)c5)CC4)c3c(=O)[nH]1)CC2` [Example 56, (S)-6-(1-amino-1,3-dihydrospiro[indene-2,4′-piperidin]-1′-yl)-3-(1-(1-phenyl-1H-pyrazol-4-yl)cyclopropyl)-1,5-dihydro-4H-pyrazolo[3,4-d]pyrimidin-4-one] showed an IC50 of 20 to 60 nM.
`N[C@@H]1c2ccccc2CC12CCN(c1nc3[nH]nc(C4(c5cnn(Cc6ccccc6)c5)CC4)c3c(=O)[nH]1)CC2` [Example 57, (S)-6-(1-amino-1,3-dihydrospiro[indene-2,4′-piperidin]-1′-yl)-3-(1-(1-benzyl-1H-pyrazol-4-yl)cyclopropyl)-1,5-dihydro-4H-pyrazolo[3,4-d]pyrimidin-4-one] showed an IC50 of no more than 20 nM.
